For 15 compounds, IC50 results are on record in patent US11040028B2, “Penicinotam derivative, preparation method and use thereof” (OCEAN UNIVERSITY OF CHINA, priority 2017, dated 2021).

What all share (type): cell-based
The test system of experiment [1] is mouse macrophages (RAW264.7). Put plainly: Lipopolysaccharide-induced NO secretion in macrophages (Griess). Conditions: Mus musculus, RAW264.7, 24 h, RAW264.7, LPS 1 μg/ml, a/b isomers given as first/second symbol, read-out: IC50 (μM), inhibition of lipopolysaccharide-induced NO secretion in macrophages. In outline:
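RAW264.7 macrophages in DMEM with 10% FBS received test samples at several concentrations and were stimulated with 1 μg/ml LPS for 24 h. NO in the supernatant was measured with the Griess reagent at 548 nm, […].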

Experiment [2] has as its system human embryonic lung fibroblast IMR-90. Put plainly: Anti-fibrosis activity test: inhibition of proliferation of human embryonic lung fibroblast IMR-90 (CCK-8). The following applies: human embryonic lung fibroblast IMR-90, CCK-8, 48 hours. In outline:
(§1)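 Cells seeded at 2×10^4 cells/mL, adhered 24 h, then exposed to compound concentrations in triplicate for 48 h at 37° C, 5% CO2. CCK-8 added for 2 h, absorbance at 450 nm; inhibition = (1−Ai/Ao)×100% versus blank control, IC50 calculated.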

For experiment [3], the system named is cardiac fibroblast RAT-iCell-C002. Put plainly: Anti-fibrosis activity test: inhibition of proliferation of cardiac fibroblast RAT-iCell-C002 (CCK-8). The following applies: Cardiac fibroblast, 48 h, cardiac fibroblast RAT-iCell-C002, CCK-8, 48 hours. In outline: as §1
Experiment [4] has as its system human fibrosarcoma cells HT-1080. Kind of experiment: Anti-fibrosis activity test: inhibition of proliferation of human fibrosarcoma cells HT-1080 (CCK-8). The following applies: Homo sapiens, HT-1080, 48 h, human fibrosarcoma cells HT-1080, CCK-8, 48 hours. Put shortly: as §1
A further experiment concerns BHK-21 cells. Put plainly: Anti-fibrosis activity test: inhibition of BHK-21 cell proliferation (CCK-8). Conditions: Mesocricetus auratus, BHK-21, 48 h, CCK-8, 48 hours after administration. In outline: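 Read-out: CCK-8 absorbance at 450 nm after 2 h, giving proliferation inhibition (1−Ai/Ao)×100% versus blank control, from which IC50 was derived. Cells had been treated with compounds for 48 h after 24 h adherence at 37° C. Pirfenidone served as positive control.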

Experiment [5] relates to human hepatic stellate cells LX-2. Kind of experiment: Anti-fibrosis activity test: inhibition of proliferation of human hepatic stellate cells LX-2 (CCK-8). Conditions: Homo sapiens, 48 h, human hepatic stellate cells LX-2, CCK-8, 48 hours. Put shortly:
as §1

Experiment [6] concerns human dermal fibroblasts CCC-ESF-1. Put plainly: Anti-fibrosis activity test: inhibition of proliferation of human dermal fibroblasts CCC-ESF-1 (CCK-8). Conditions: Fibroblast; human dermal fibroblasts CCC-ESF-1, CCK-8, 48 hours. In outline:
as §1

A further experiment concerns NF-κB. Kind of experiment: Immunological activity test: inhibition of NF-κB activity. Conditions: initial concentration of 30 μM; a/b isomers given as first/second symbol; read-out: IC50 (μM), inhibitory activity against NF-κB. Put shortly:
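NF-κB inhibition was tested at an initial 30 μM compound concentration, with parthenolide as positive control, and IC50 values were determined from follow-up analysis.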

Experiment [7] relates to human lung fibroblasts HFL1. Put plainly: Anti-fibrosis activity test: inhibition of proliferation of human lung fibroblasts HFL1 (CCK-8). Conditions: Homo sapiens, HFL1, 48 h, human lung fibroblasts HFL1, CCK-8, 48 hours. Put shortly:
as §1

A word on the IC50: it is the concentration at which inhibition is half-maximal. With `O=C(Cn1c2c(c(=O)c3ccccc31)C(=O)n1cccc1-2)c1ccc(Cl)cc1` [Compound 90a, 4-(2-(4-Chlorophenyl)-2-oxoethyl)-9H-pyrrolizino[1,2-b]quinoline-9,10(4H)-dione], the half-inhibitory concentration (IC50) in experiment [1] was 0.1 to 1 µM; in [2] it was 0.05 to 5 mM; in [3], 0.05 to 5 mM; in experiment [4], 0.05 to 5 mM; in the experiment on BHK-21 cells, 0.05 to 5 mM; in experiment [5] it was less than 0.05 mM. Moreover, the IC50 in experiment [6] was in the range of 0.05 to 5 mM; with NF-κB, 1 to 10 µM; in experiment [7], 0.05 to 5 mM.

As to `O=C(COc1c2c(nc3ccccc13)-c1cccn1C2=O)c1ccc(Cl)cc1` [Compound 90b, 9-(2-(4-chlorophenyl)-2-oxoethoxy)-10H-pyrrolizino[1,2-b]quinolin-10-one], the IC50 in experiment [1] is 0.1 to 1 µM; in [2] it was 0.05 to 5 mM; in experiment [3] it was 0.05 to 5 mM; in experiment [4], 5 to 20 mM; with BHK-21 cells, 0.05 to 5 mM; in experiment [5], 0.05 to 5 mM. For the same compound, the results for the IC50 (in experiment [6]; with NF-κB; in experiment [7]) were 0.05 to 5 mM, 1 to 10 µM and 0.05 to 5 mM, respectively.

For the compound `O=C(COc1c2c(nc3ccccc13)-c1cccn1C2=O)c1ccc(C(F)(F)F)cc1` [Compound 91b, 9-(2-oxo-2-(4-(trifluoromethyl)phenyl)ethoxy)-10H-pyrrolizino[1,2-b]quinolin-10-one], the IC50 in experiment [1] is 0.1 to 1 µM; in experiment [2] it was 0.05 to 5 mM; in experiment [3] it was 0.05 to 5 mM; in [4], 0.05 to 5 mM; in the experiment on BHK-21 cells, 0.05 to 5 mM; in [5], 5 to 20 mM. For the same compound, the figures for the IC50 (in [6]; with NF-κB; in experiment [7]) were 0.05 to 5 mM, 1 to 10 µM and less than 0.05 mM, respectively.

In the case of `O=C1c2c(n(C(=O)c3ccco3)c3ccccc3c2=O)-c2cccn21` [Compound 95a, 4-(Furan-2-carbonyl)-9H-pyrrolizino[1,2-b]quinoline-9,10(4H)-dione], the 50% inhibitory concentration (IC50) was 1 to 10 µM in experiment [1]; less than 0.05 mM in [2]; 0.05 to 5 mM in experiment [3]; less than 0.05 mM in experiment [4]; 0.05 to 5 mM with BHK-21 cells; less than 0.05 mM in experiment [5]. Besides, the IC50 in experiment [6] lay in the range of 0.05 to 5 mM; in the experiment on NF-κB, 1 to 10 µM; in experiment [7], 0.05 to 5 mM.

As to `O=C(Oc1c2c(nc3ccccc13)-c1cccn1C2=O)c1ccco1` [Compound 95b, 10-oxo-10H-pyrrolizino[1,2-b]quinolin-9-ylfuran-2-carboxylate], the IC50 in experiment [1] is 1 to 10 µM; in experiment [2], 0.05 to 5 mM; in experiment [3], 0.05 to 5 mM; in [4], 0.05 to 5 mM; in the experiment with BHK-21 cells, 0.05 to 5 mM; in [5], less than 0.05 mM. Further, the values for the IC50 (in experiment [6]; in the experiment with NF-κB; in experiment [7]) were 0.05 to 5 mM, 1 to 10 µM and 0.05 to 5 mM, respectively.

Consider `O=C1c2c(n(CCN3CCNCC3)c3ccccc3c2=O)-c2cccn21` [Compound 98a, 4-(2-(Piperazin-1-yl)ethyl)-9H-pyrrolizino[1,2-b]quinoline-9,10(4H)-dione], for which the IC50 was 1 to 10 µM in experiment [1]; less than 0.05 mM in experiment [2]; 0.05 to 5 mM in experiment [3]; 0.05 to 5 mM in experiment [4]; less than 0.05 mM with BHK-21 cells; less than 0.05 mM in [5]. The IC50 in experiment [6] is less than 0.05 mM; in the experiment with NF-κB it was 1 to 10 µM; in experiment [7], 0.05 to 5 mM.

`O=C1c2c(nc3ccccc3c2OCCN2CCNCC2)-c2cccn21` [Compound 98b, 9-(2-(piperazin-1-yl)ethoxy)-10H-pyrrolizino[1,2-b]quinolin-10-one]: the IC50 in [1] was 1 to 10 µM; in experiment [2], 0.05 to 5 mM; in experiment [3], 0.05 to 5 mM; in experiment [4] it was 0.05 to 5 mM; in the experiment on BHK-21 cells, 0.05 to 5 mM; in experiment [5] it was 0.05 to 5 mM. Further, the results for the IC50 (in [6]; in the experiment on NF-κB; in experiment [7]) were 0.05 to 5 mM, 1 to 10 µM and 0.05 to 5 mM, respectively.

With `O=C(O)Cn1c2c(c(=O)c3ccccc31)C(=O)n1cccc1-2` [Compound 100a, 2-(9,10-Dioxo-9H-pyrrolizino[1,2-b]quinolin-4(10H)-yl)acetic acid], the 50% inhibitory concentration (IC50) in experiment [1] is 0.1 to 1 µM; in experiment [2] it was 0.05 to 5 mM; in experiment [3] it was 0.05 to 5 mM; in [4], 0.05 to 5 mM; in the experiment on BHK-21 cells, 0.05 to 5 mM; in [5], 0.05 to 5 mM. The IC50 in [6] was 0.05 to 5 mM; in the experiment on NF-κB, 1 to 10 µM; in experiment [7], less than 0.05 mM.

With `O=C(O)COc1c2c(nc3ccccc13)-c1cccn1C2=O` [Compound 100b, 2-((10-oxo-10H-pyrrolizino[1,2-b]quinolin-9-yl)oxy)acetic acid], the 50% inhibitory concentration (IC50) lay within 1 to 10 µM in [1]; 0.05 to 5 mM in experiment [2]; 0.05 to 5 mM in experiment [3]; 0.05 to 5 mM in experiment [4]; 0.05 to 5 mM in the experiment on BHK-21 cells; 0.05 to 5 mM in experiment [5]. Further, the IC50 in experiment [6] lay within 0.05 to 5 mM; in the experiment on NF-κB, 1 to 10 µM; in experiment [7] it was 0.05 to 5 mM.

Regarding `O=C1c2c(n(Cc3ccccc3)c3ccccc3c2=O)-c2cccn21` [Compound 103a, 4-Benzyl-9H-pyrrolizino[1,2-b]quinoline-9,10(4H)-dione], the concentration for half-maximal inhibition (IC50) is 0.1 to 1 µM in experiment [1]; less than 0.05 mM in [2]; 0.05 to 5 mM in experiment [3]; 0.05 to 5 mM in [4]; 0.05 to 5 mM with BHK-21 cells; 0.05 to 5 mM in [5]. Also, the IC50 is 0.05 to 5 mM in experiment [6], 1 to 10 µM in the experiment on NF-κB and 0.05 to 5 mM in experiment [7].

As to `O=C1c2c(nc3ccccc3c2OCc2ccccc2)-c2cccn21` [Compound 103b, 9-(benzyloxy)-10H-pyrrolizino[1,2-b]quinolin-10-one], the concentration for half-maximal inhibition (IC50) in [1] is 1 to 10 µM; in [2], less than 0.05 mM; in experiment [3] it was 0.05 to 5 mM; in [4] it was 0.05 to 5 mM; in the experiment on BHK-21 cells, 0.05 to 5 mM; in experiment [5], 0.05 to 5 mM. The half-inhibitory concentration (IC50) fell in the range of 0.05 to 5 mM in experiment [6], 1 to 10 µM in the experiment with NF-κB and 0.05 to 5 mM in [7].

As to `CC(C)=CCn1c2c(c(=O)c3cc(F)ccc31)C(=O)n1cccc1-2` [Compound 112a, 7-Fluoro-4-(3-methylbut-2-en-1-yl)-9H-pyrrolizino[1,2-b]quinoline-9,10(4H)-dione], the half-inhibitory concentration (IC50) is 1 to 10 µM in experiment [1]; 0.05 to 5 mM in experiment [2]; 0.05 to 5 mM in experiment [3]; 0.05 to 5 mM in experiment [4]; 5 to 20 mM in the experiment with BHK-21 cells; 0.05 to 5 mM in experiment [5]. In addition, the figures for the concentration for half-maximal inhibition (IC50) (in experiment [6]; with NF-κB; in experiment [7]) were 0.05 to 5 mM, 10 to 50 µM and 0.05 to 5 mM, respectively.

Take `CC(C)=CCOc1c2c(nc3ccc(F)cc13)-c1cccn1C2=O` [Compound 112b, 7-fluoro-9-((3-methylbut-2-en-1-yl)oxy)-10H-pyrrolizino[1,2-b]quinolin-10-one]: the IC50 lay in the range of 1 to 10 µM in [1]; 0.05 to 5 mM in experiment [2]; 0.05 to 5 mM in experiment [3]; 0.05 to 5 mM in experiment [4]; 0.05 to 5 mM in the experiment with BHK-21 cells; 0.05 to 5 mM in [5]. Also, the IC50 in experiment [6] is 0.05 to 5 mM; with NF-κB it was 1 to 10 µM; in experiment [7] it was 0.05 to 5 mM.

With `O=C1c2c(n(CCc3ccccc3)c3ccc(F)cc3c2=O)-c2cccn21` [Compound 141a, 7-Fluoro-4-phenethyl-9H-pyrrolizino[1,2-b]quinoline-9,10(4H)-dione], the IC50 lay in the range of 1 to 10 µM in [1]; 0.05 to 5 mM in [2]; 0.05 to 5 mM in [3]; 0.05 to 5 mM in [4]; 0.05 to 5 mM with BHK-21 cells; 0.05 to 5 mM in [5]. Further, the IC50 in [6] is less than 0.05 mM; in the experiment with NF-κB, 1 to 10 µM; in experiment [7] it was 0.05 to 5 mM.

Consider `O=C1c2c(nc3ccc(F)cc3c2OCCc2ccccc2)-c2cccn21` [Compound 141b, 7-Fluoro-9-phenethoxy-10H-pyrrolizino[1,2-b]quinolin-10-one], for which the half-inhibitory concentration (IC50) in [1] lay in the range of 1 to 10 µM; in [2], 0.05 to 5 mM; in experiment [3] it was 0.05 to 5 mM; in [4] it was 0.05 to 5 mM; in the experiment on BHK-21 cells, 0.05 to 5 mM; in [5], 0.05 to 5 mM. For the same compound, the IC50 in experiment [6] lay in the range of 5 to 20 mM; in the experiment with NF-κB, 0.1 to 1 µM; in experiment [7], 0.05 to 5 mM.
